As a reminder, the IC50 is the point on the concentration scale where inhibition reaches its midpoint. Higher therefore signals a need for much substance. Usually GI50 stands for the concentration at which growth is held to half of that of the control. Usually bioavailability stands for the share of a dose that reaches the circulation, judged against a reference dose that is usually intravenous. The term solubility denotes the dissolved amount per volume that the medium holds. A low value points to little dissolved substance.

In data set [1] the test system is HCT-116. Kind of data set: Growth inhibition of human HCT116 cells at 10 uM after 72 hrs by MTT assay. The class given is functional. The settings on record: HCT-116, 72 h, read-out: GI. Background: Tetrazolium assays rely on reduction of a dye to a coloured formazan, in cell work by metabolically active cells.
The target in another data set is T1, Aurora kinase A (Homo sapiens, UniProt O14965).
T1 sequence (O14965 whole entry): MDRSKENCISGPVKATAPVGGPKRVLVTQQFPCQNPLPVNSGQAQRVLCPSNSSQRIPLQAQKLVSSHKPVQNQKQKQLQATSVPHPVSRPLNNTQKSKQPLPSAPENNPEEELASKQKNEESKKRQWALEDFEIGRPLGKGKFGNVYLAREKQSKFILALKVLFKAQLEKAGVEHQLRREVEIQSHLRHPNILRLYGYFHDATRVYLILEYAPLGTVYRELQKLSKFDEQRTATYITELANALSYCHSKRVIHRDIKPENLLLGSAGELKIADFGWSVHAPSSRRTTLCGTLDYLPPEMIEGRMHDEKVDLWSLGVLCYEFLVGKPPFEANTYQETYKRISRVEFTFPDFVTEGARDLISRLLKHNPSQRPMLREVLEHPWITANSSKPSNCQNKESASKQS

Data set [2] addresses Voltage-gated inwardly rectifying potassium channel KCNH2 (Homo sapiens, UniProt Q12809). The data set can be described thus: Inhibition of human ERG at 10 uM. The settings on record: 10 µM.
Data set [3] in a line: Permeability by PAMPA assay. The class given is ADME. The settings on record: read-out: permeability.
The test system of data set [4] is HCT-116. Kind of data set: Growth inhibition of human HCT116 cells after 72 hrs by MTT assay. The class given is functional. Conditions: HCT-116, 72 h; call rule not given here.
The nature of data set [5]: Oral bioavailability in BALB/c mouse at 5 mg/kg. Type of data set: ADME, organism-based. Conditions: in vivo.
A short description of data set [6]: Metabolic stability in CD1 mouse liver microsomes assessed as compound remaining at 10 uM after 30 mins by LC-MS/MS analysis. Conditions: read-out: Stability. The class given is ADME, Microsome. In general terms: Microsomes from liver hold many membrane-bound enzymes, among them those of drug oxidation.
Data set [7] is described as follows: Aqueous solubility of the compound. Conditions: buffer. The class given is physicochemical.

Sequence of Voltage-gated inwardly rectifying potassium channel KCNH2 (Q12809 whole entry): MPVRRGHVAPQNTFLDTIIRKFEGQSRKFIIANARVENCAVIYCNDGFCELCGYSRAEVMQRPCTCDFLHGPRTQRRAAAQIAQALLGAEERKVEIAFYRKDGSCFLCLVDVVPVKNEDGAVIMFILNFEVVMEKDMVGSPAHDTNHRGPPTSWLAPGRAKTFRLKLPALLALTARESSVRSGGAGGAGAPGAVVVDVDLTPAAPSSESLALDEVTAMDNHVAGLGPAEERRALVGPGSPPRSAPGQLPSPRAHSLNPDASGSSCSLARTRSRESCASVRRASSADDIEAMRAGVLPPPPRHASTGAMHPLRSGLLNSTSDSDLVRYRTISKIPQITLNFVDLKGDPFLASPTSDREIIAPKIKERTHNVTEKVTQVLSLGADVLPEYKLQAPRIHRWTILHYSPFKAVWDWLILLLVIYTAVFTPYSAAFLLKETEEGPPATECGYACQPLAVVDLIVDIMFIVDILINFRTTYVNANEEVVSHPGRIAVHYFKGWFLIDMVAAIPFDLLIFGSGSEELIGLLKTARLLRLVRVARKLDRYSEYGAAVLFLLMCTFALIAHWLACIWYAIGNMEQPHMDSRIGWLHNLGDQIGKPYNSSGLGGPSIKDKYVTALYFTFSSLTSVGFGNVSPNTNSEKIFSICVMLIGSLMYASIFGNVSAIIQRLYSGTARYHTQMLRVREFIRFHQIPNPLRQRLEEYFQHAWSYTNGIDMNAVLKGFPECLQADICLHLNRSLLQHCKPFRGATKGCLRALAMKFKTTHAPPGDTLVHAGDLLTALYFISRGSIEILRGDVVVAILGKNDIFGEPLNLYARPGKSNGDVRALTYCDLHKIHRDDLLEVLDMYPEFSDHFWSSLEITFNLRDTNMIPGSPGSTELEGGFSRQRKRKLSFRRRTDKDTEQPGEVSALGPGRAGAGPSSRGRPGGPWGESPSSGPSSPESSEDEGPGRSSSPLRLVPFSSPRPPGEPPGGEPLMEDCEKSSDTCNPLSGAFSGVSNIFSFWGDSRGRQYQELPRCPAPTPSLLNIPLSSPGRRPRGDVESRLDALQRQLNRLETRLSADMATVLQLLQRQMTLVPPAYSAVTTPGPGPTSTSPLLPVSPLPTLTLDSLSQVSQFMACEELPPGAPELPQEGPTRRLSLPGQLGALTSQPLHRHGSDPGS
Description for Aurora kinase A: Inhibition of human recombinant Aurora A expressed in baculovirus system

`O=C(CN1CCN(c2c(Br)cnc3[nH]cnc23)CC1)Nc1nccs1`: the inhibition of growth at 10 µM in the data set with HCT-116 [1] turned out to be 40%. Further, half-maximal inhibition at Aurora kinase A (IC50) required 517 nM.
On to `COc1ccc(-c2nc3c(N4CCN(Cc5cc(C)on5)CC4)c(Br)cnc3[nH]2)cc1`, for which the “inhibition (INH)” value in data set [2] was “Not Active”. In addition, the Papp in data set [3] came out at 6 ×10⁻⁶ cm/s. The GI50 in the data set on HCT-116 [4] was determined as 540 nM. Further, the bioavailability in data set [5] came out at 23%. For the same molecule, the remaining at 0.5 h, 10 µM in data set [6] is greater than 50%. Besides, the solubility in data set [7] is less than 10 µg/mL. The IC50 on Aurora kinase A turned out to be 17 nM.

The values are drawn from ChEMBL document CHEMBL1155446, “Imidazo[4,5-b]pyridine derivatives as inhibitors of Aurora kinases: lead optimization studies toward the identification of an orally bioavailable preclinical development candidate” (J Med Chem, 2010).
